Data set [1] relates to human mesenchymal stem cells (hMSC), line UE6E7T-3. The data set is described as follows: Penetration of MSCPP-EGFPHIS fusion peptides into hMSC (fluorescence microscopy). The class given is cell-based. Particulars: MSCPP-EGFPHIS fusion peptide, cultured four hours, FIG. 1. An excerpt: Using an independently prepared 9-amino acid residue peptide as a phenotype linked via puromycin to a protein-RNA chimeric random peptide library (in vitro virus library; IVVL) having an mRNA coding sequence as the corresponding genotype, a conventional IVV (in vitro virus) method was used with human mesenchymal stem cells (hMSC) as the absorption target cells to repeat a reaction cycle in a culture system, thus isolating 81 types of peptide having penetration into mesenchymal stem cells (mesenchymal stem cell-penetrating peptide; MSCPP).
Next, fusion peptides (having a His tag formed from six histidine residues at the C-terminus of the fusion peptide) of each of the 81 isolated MSCPP and EGFP (excitation wavelength: 488 nm, fluorescence wavelength: 509 nm) (MSCPP-EGFPHIS) were produced. The penetration properties into hMSC were evaluated for each of the MSCPP-EGFPHIS. Cells of the hMSC line UE6E7T-3 were used as the hMSC. An RPMI 1640 medium containing 10% FBS was used as the medium. The UE6E7T-3 cells were inoculated into a 96-well plate, medium containing each MSCPP-EGFPHIS (5 μL of fusion peptide solution and 50 μL of medium per well) was added, and the mixtures were cultured for four hours. Following culturing, the cells were inspected under a fluorescence microscope. In FIG. 1, “EGFPHIS” represents EGFP having a His tag formed from six histidine residues at the C-terminus, but not being fused with an MSCPP peptide. Further, “Poly-r9” (9-residue continuous D-arginine) is a non-selective membrane-permeable peptide that is currently widely used.

Data set [2] concerns hMSC. Nature of the data set: Cell selectivity of FITC-labelled peptides: penetration into hMSC. It counts as cell-based, human. The settings on record: FITC-labelled peptide 4 μM, four hours, FIG. 2. The method, then: (§1) Among the peptides identified in Example 1, the four peptides MSCPP33, 48, 49 and 106, Poly-r9 as a positive control and MSCPP22 as a negative control were synthesized with an FITC (fluorescein isothiocyanate) (excitation wavelength: 495 nm, fluorescence wavelength: 520 nm) label, and then subjected to a hydrochloride treatment. These peptides were each obtained via contract synthesis by Sigma-Aldrich Japan (Genosis division). The MSCPP33 was dissolved in 20% DMSO. The MSCPP48 developed a precipitate following thawing of the frozen state, and was therefore subjected to a sonication treatment prior to use. The MSCPP49 and MSCPP106 were dissolved in water prior to use.
Subsequently, the penetration of each peptide into hMSC, normal human dermal fibroblasts (NHDF), and BxPC3 cells, which are an established cell line derived from human pancreatic adenocarcinoma, was confirmed. In the case of the hMSC, cells that had been inoculated into a 24-well plate at 4×10^4 cells/well and then cultured for 24 hours in an MSC medium were used. In the case of the NHDF and BxPC3 cells, cells that had been inoculated into a 24-well plate at 4×10^4 cells/well and then cultured for 24 hours in an RPMI 1640 medium containing 10% FBS were used. Mediums (RPMI 1640 medium containing 10% FBS) containing 4 μM of each of the peptides were then added to each of the cells and cultured for four hours. Following culturing, each of the cells was subjected to nuclear staining with Hoechst 33342 (excitation wavelength: 352 nm, fluorescence wavelength: 461 nm), and was then observed using a phase difference/fluorescence microscope. In FIG. 2, the images shown on the left side are FITC fluorescence images, and the images shown on the right side are merged images of the fluorescence image and the phase difference microscope image.

Data set [3] can be described thus: Degradation resistance in human plasma (MALDI-TOFMS). It counts as in vitro ADME. The settings on record: human plasma 50% by mass, 0 to 120 minutes, FIG. 4. An excerpt:
For the single peptide, tandem peptide, and tandem mutated peptide of MSCPP106 shown below in Table 2, the degradation resistance in human plasma was investigated. In Table 2, “tandem MSCPP106” describes a peptide composed of sequence containing two repeated amino acid sequences for MSCPP106 linked via a glycine residue spacer. Further, “tandem mut MSCPP106” describes a peptide composed of a sequence in which the cysteine residues in the amino acid sequence of tandem MSCPP106 have been methylated (mC).
Each of the above peptides was added to human plasma with a concentration of 50% by mass, the mixture was then sampled immediately after starting the degradation test (0 minutes), and then after 5 minutes, after 10 minutes, after 20 minutes, after 30 minutes, after 60 minutes and after 120 minutes, and each sample was analyzed by MALDI-TOFMS (Matrix Assisted Laser Desorption/Ionization-Time of Flight Mass Spectrometry). The ratio of the mass of the retained peptide that had not degraded at each of the sampling points from the start of the test, relative to the mass of the peptide (100% by mass) at the start of the test was calculated and graphed (see FIG. 4).

For data set [4], the system named is CAF of the cancer stroma, subcutaneous tumor. Nature of the data set: Absorption into CAF of cancer stroma in scirrhous cancer model mouse. It counts as in vivo. The settings on record: [FAM]-labelled, 300 μg intravenous, 30 minutes after injection, FIG. 8C. The method, then:
Using the same method as Example 7, a scirrhous cancer model mouse was obtained. Subsequently, the obtained scirrhous cancer model mouse was injected intravenously with [FAM]-tandem MSCPP106 (300 μg). Subsequently, the pharmacokinetics of the peptide 30 minutes after the intravenous injection were analyzed by tissue analysis of the freshly dissected specimen of the peptide-administered mouse.
FIG. 8C is a series of phase difference microscope images and fluorescent images of the subcutaneous tumor. The upper two rows are images at a magnification of 20×, whereas the lower two rows are images at a magnification of 40×. Further, “Merge” represents merged images of each phase difference microscope image and each fluorescent image.

The subject of data set [5] is hMSC. The data set is described as follows: Intracellular localization of [FAM]-tandem MSCPP106 in hMSC. The class given is cell-based, human. The settings on record: [FAM]-labelled, 4 μM, fluorescence maintained in lysosomes, FIG. 6. The method, then: Next, the intracellular localization of [FAM]-tandem MSCPP106 was investigated. Specifically, hMSC were inoculated into a 24-well plate to achieve 4×10^4 cells/well, and four hours after the inoculation, the medium was replaced with an RPMI medium containing 10% FBS, and culturing was conducted for 60 hours. Following culturing, a medium (RPMI 1640 medium containing 10% FBS) containing 4 μM of [FAM]-tandem MSCPP106 was added to the hMSC and cultured for 24 hours. Following culturing, nuclear staining was conducted with Hoechst 33342 (excitation wavelength: 352 nm, fluorescence wavelength: 461 nm), lysosomes were also stained using LysoTracker (a registered trademark) RED DND-99 (a lysosome content marker, excitation wavelength: 555 nm, fluorescence wavelength: 584 nm), and the cultures were then observed using a phase difference/fluorescence microscope (magnification: 60×). In FIG. 6, “Merge” indicates a merged image of the FAM fluorescence image and the LysoTracker (a registered trademark) RED DND-99 fluorescence image.

The test system of data set [6] is cancer stroma, subcutaneous tumor (BxPC3 cells and DsRed2 hMSC). The data set is described as follows: Absorption of [FAM]-tandem and [FAM]-tandem mut MSCPP106 into cancer stroma in scirrhous pancreatic cancer model mice. The class given is in vivo, mouse. Particulars: [FAM]-labelled, 300 μg intravenous, 60 minutes after injection. An excerpt: Next, in order to investigate the functional importance of the cysteine within the peptide sequence (positioned second from the N-terminus), a comparison was made of the absorption into cancer stroma of [FAM]-tandem MSCPP106 and [FAM]-tandem mut MSCPP106 (having a sequence in which the N-terminus is labeled with FAM, and having a mutation in which the side-chain —SH group of the cysteine second from the N-terminus has been methylated). With the exception of using cloned hMSC cells that constantly expressed DsRed2, the same method as Example 7 was used to obtain scirrhous pancreatic cancer model mice. Subsequently, the obtained scirrhous pancreatic cancer model mice were injected intravenously with [FAM]-tandem MSCPP106 or [FAM]-tandem mut MSCPP106 (300 μg in each case). In each case, the pharmacokinetics of the peptide 60 minutes after the intravenous injection were then analyzed by tissue analysis of the freshly dissected specimen of the peptide-administered mouse.
FIG. 9B is a series of fluorescent images of subcutaneous tumors in mice administered with [FAM]-tandem MSCPP106 or [FAM]-tandem mut MSCPP106 (magnification: 4×).
FIG. 9C is a series of fluorescent images of a subcutaneous transplanted tumor in a mouse administered with tandem MSCPP106 (magnification: 4×, 20× and 40×). […]

In data set [7] the test system is normal human dermal fibroblasts (NHDF). Nature of the data set: Cell selectivity of FITC-labelled peptides: penetration into NHDF. It counts as cell-based. Particulars: FITC-labelled peptide 4 μM, four hours, FIG. 2. The method, then: as §1
(§2) Subsequently, the penetration of each peptide into hMSC, normal human dermal fibroblasts (NHDF), and BxPC3 cells, which are an established cell line derived from human pancreatic adenocarcinoma, was confirmed. […] Following culturing, each of the cells was subjected to nuclear staining with Hoechst 33342 (excitation wavelength: 352 nm, fluorescence wavelength: 461 nm), and was then observed using a phase difference/fluorescence microscope. In FIG. 2, the images shown on the left side are FITC fluorescence images, and the images shown on the right side are merged images of the fluorescence image and the phase difference microscope image.

In a further data set the test system is BxPC3 cells. Nature of the data set: Cell selectivity of FITC-labelled peptides: penetration into BxPC3 cells. The class given is cell-based, human. The settings on record: FITC-labelled peptide 4 μM, four hours, FIG. 2. The method, then: as §1, §2

“Also recorded” adds a separate entry of the source. Peptide text beside a SMILES is read from it.

Consider 6 molecules from patent US12678511B2, “Peptide and use thereof” (Kansai Medical University Educational Corgoration, priority 2019, dated 2026).

Take RRWMQWPWH [MSCPP49]: the “penetration into human bone marrow-derived mesenchymal stem cells (hMSC)” value in data set [1] is recorded as “exhibited penetration”. The “absorption into hMSC” value in the data set with hMSC [2] is “high absorption and fixed selective absorption”.
For the molecule WPPLQRWRN [MSCPP33], the “penetration into human bone marrow-derived mesenchymal stem cells (hMSC)” value in data set [1] is given as “exhibited penetration”. For the same molecule, the “absorption into hMSC” value in the data set with hMSC [2] was “high absorption and fixed selective absorption”.
On to `CSC[C@H](NC(=O)[C@H](CCCCN)NC(=O)CNC(=O)[C@H](CC(C)C)NC(=O)[C@H](Cc1c[nH]cn1)NC(=O)[C@H](CCCNC(=N)N)NC(=O)[C@H](Cc1ccccc1)NC(=O)[C@H](CC(C)C)NC(=O)[C@H](CCC(=O)O)NC(=O)[C@H](C)NC(=O)[C@H](CSC)NC(=O)[C@@H](N)CCCCN)C(=O)N[C@@H](C)C(=O)N[C@@H](CCC(=O)O)C(=O)N[C@@H](CC(C)C)C(=O)N[C@@H](Cc1ccccc1)C(=O)N[C@@H](CCCNC(=N)N)C(=O)N[C@@H](Cc1c[nH]cn1)C(=O)N[C@@H](CC(C)C)C(=O)O` [tandem mut MSCPP106, KmCAELFRHL-G-KmCAELFRHL] (H-KC(Me)AELFRHLGKC(Me)AELFRHL-OH; N-terminus and C-terminus assumed), for which the “degradation resistance in human plasma” value in data set [3] is “excellent degradation resistance compared with the single MSCPP106”.
With RTHPVWSRT [MSCPP48], the “penetration into human bone marrow-derived mesenchymal stem cells (hMSC)” value in data set [1] is on record as “exhibited penetration”. For the same molecule, the “absorption into hMSC” value in the data set with hMSC [2] was “high absorption and fixed selective absorption”.
In the case of `CC(C)C[C@H](NC(=O)[C@H](Cc1c[nH]cn1)NC(=O)[C@H](CCCNC(=N)N)NC(=O)[C@H](Cc1ccccc1)NC(=O)[C@H](CC(C)C)NC(=O)[C@H](CCC(=O)O)NC(=O)[C@H](C)NC(=O)[C@H](CS)NC(=O)[C@H](CCCCN)NC(=O)CNC(=O)[C@H](CC(C)C)NC(=O)[C@H](Cc1c[nH]cn1)NC(=O)[C@H](CCCNC(=N)N)NC(=O)[C@H](Cc1ccccc1)NC(=O)[C@H](CC(C)C)NC(=O)[C@H](CCC(=O)O)NC(=O)[C@H](C)NC(=O)[C@H](CS)NC(=O)[C@@H](N)CCCCN)C(=O)O` [tandem MSCPP106, KCAELFRHL-G-KCAELFRHL] (H-KCAELFRHLGKCAELFRHL-OH; N-terminus and C-terminus assumed), the “absorption into the CAF of the cancer stroma” value in data set [4] is given as “selective absorption”. The “resistance to intracellular digestion (degradation)” value with hMSC [5] was “at least 24 hours”. For the same molecule, the “absorption into cancer stroma, comparison of peptides” value in data set [6] (FIG. 9B) is “even better absorption into cancer stroma than tandem mut MSCPP106”. For the same molecule, the “absorption into hMSC-derived hCAF and mouse MSC-derived CAF” value in data set [6] (FIG. 9C) is reported as “excellent absorption into both forms of CAF”. Further, the “degradation resistance in human plasma” value in data set [3] is given as “excellent degradation resistance compared with the single MSCPP106”.
Turning to KCAELFRHL [MSCPP106], in data set [1], the “fluorescence observed in hMSC” value is recorded as “Particularly strong fluorescence” and the “penetration into human bone marrow-derived mesenchymal stem cells (hMSC)” value is “exhibited penetration”. Besides, the “absorption into NHDF” value in data set [7] was “lower absorption into NHDF compared with the absorption into hMSC”. For the same molecule, the “absorption into hMSC” value with hMSC [2] was “high absorption and fixed selective absorption; also recorded: efficient absorption”. For the same molecule, the “absorption into the pancreatic cancer cells BxPC3” value in the data set with BxPC3 cells is recorded as “low absorption”.
